Source: patent US7935674B2, “Indole derivatives” (Mitsubishi Tanabe Pharma Corporation, priority 2005, dated 2011)

Experiments:
human SGLT2 = biological target: T1, human SGLT2 (Homo sapiens, UniProt P31639); assay: Assay for SGLT2 inhibition (14C-AMG uptake in CHOK1 cells expressing human SGLT2); type: cell-based; settings: CHOK1 cells expressing human SGLT2; 14C-AMG uptake, 0.5 mM, 2 hours at 37° C.; read-out: IC50
T1 construct: expressed in transfected cells; host or cells: CHOK1 (Chinese hamster ovary) cells, kept under Geneticin selection
T1 sequence (P31639 1-672): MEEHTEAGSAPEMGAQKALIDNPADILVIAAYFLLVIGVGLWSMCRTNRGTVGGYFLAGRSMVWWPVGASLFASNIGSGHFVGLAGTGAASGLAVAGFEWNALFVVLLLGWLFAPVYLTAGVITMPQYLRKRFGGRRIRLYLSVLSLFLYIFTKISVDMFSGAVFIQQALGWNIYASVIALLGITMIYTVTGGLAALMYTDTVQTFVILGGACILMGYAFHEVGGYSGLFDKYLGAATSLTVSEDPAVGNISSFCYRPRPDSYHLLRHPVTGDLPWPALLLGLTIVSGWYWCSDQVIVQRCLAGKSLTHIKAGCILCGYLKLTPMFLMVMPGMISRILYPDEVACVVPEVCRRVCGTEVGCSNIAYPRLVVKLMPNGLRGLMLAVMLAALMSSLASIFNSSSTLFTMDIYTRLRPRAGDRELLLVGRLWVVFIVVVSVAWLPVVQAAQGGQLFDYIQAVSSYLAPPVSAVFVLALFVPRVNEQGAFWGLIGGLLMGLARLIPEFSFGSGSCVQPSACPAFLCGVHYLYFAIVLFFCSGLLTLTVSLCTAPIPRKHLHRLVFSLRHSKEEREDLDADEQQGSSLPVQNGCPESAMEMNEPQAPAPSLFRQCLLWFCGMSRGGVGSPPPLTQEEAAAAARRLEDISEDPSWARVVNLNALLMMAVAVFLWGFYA
Experimental: 1. Assay for SGLT2 Inhibition
Compounds described in the above examples were used for the SGLT2 inhibition assay.
CHOK1 cells expressing human SGLT2 were seeded in 24-well plates at a density of 400,000 cells/well in F-12 nutrient mixture (Ham's F-12) containing 10% fetal bovine serum, 400 μg/ml Geneticin, 50 units/ml sodium penicillin G (Gibco-BRL) and 50 μg/ml streptomycin sulfate. After 2 days of culture at 37° C. in a humidified atmosphere containing 5% CO2, cells were washed once with the assay buffer (137 mM NaCl, 5 mM KCl, 1 mM CaCl2, 1 mM MgCl2, 50 mM Hepes, and 20 mM Tris, pH 7.4) and incubated with 250 μl of the buffer containing test compounds for 10 min at 37° C. Test compounds were dissolved in DMSO. The final concentration of DMSO was 0.5%. The transport reaction was initiated by addition of 50 μl [^14C]-methyl-α-D-glucopyranoside (^14C-AMG) solution (final concentration, 0.5 mM). After incubation for 2 hours at 37° C., the uptake was stopped by aspiration of the incubation mixture, the cells were washed three times with ice-cold PBS. Then, cells were solubilized with 0.3 N NaOH and aliquots were taken for determination of radioactivity by a liquid scintillation counter. Nonspecific AMG uptake was defined as that which occurred in the presence of 100 μM of phlorizin, a specific inhibitor of sodium-dependent glucose cotransporter. Specific uptake was normalized for the protein concentrations measured by the method of Bradford. The 50% inhibitory concentration (IC50) values were calculated from dose-response curves by least square method.

Sprague-Dawley (SD) rats = assay: Urinary glucose excretion test in rats; type: in vivo, rat; settings: male SD rats; 30 mg/kg by oral gavage; urine collected for 24 hours; daily amount of glucose excreted in urine per individual
Experimental: 2. Urinary Glucose Excretion Test in Rats Test Compounds:
Compounds described in the above examples were used for the Urinary glucose excretion test in rats.
6-week-old male Sprague-Dawley (SD) rats were housed in individual metabolic cages with free access to food and water from 2 days prior to the experiment. On the morning of the experiment, rats were administered vehicle (0.2% carboxymethyl cellulose solution containing 0.2% Tween80) or test compounds (30 mg/kg) by oral gavage at a volume of 10 ml/kg. Then, urine of the rat was collected for 24 hours, and the urine volume was measured. Subsequently, the glucose concentration in urine was quantified using the enzymatic assay kit and the daily amount of glucose excreted in urine per individual was calculated.

Row | SMILES | IC50 (human SGLT2) [nM] | melting point [°C] | Urinary glucose (Sprague-Dawley (SD) rats)
1 | Cc1cccc2c1c(Cc1ccc(-c3ccccn3)s1)cn2[C@@H]1O[C@H](CO)[C@@H](O)[C@H](O)[C@H]1O [Example 52, 4-Methyl-3-(5-(2-pyridyl)thiophen-2-yl-methyl)-1-(β-D-gluco-pyranosyl)indole] | 2.8 | 195 to 200 | –
2 | OC[C@H]1O[C@@H](n2cc(Cc3ccc(I)cc3)c3c(Cl)cc(Cl)cc32)[C@H](O)[C@@H](O)[C@@H]1O [Example 36, 4,6-Dichloro-3-(4-iodophenylmethyl)-1-(β-D-glucopyranosyl)-indole] | 14 | – | B (2400 mg>B≧2000 mg)
